From patent publication US20070066615A1, “Heterocyclic compounds” (BAYER HEATHCARE AG, priority 2003, published 2007)

melting point: 201 °C (dec.)
SMILES: O=C(NCC1CN(c2ccc(N3CCCC3=O)cc2)C(=O)CO1)c1ccc(Cl)s1 (stereo not shown) [Example 4, 5-Chloro-N-({5-oxo-4-[4-(2-oxo-1-pyrrolidinyl)phenyl]-2-morpholinyl}methyl)-2-thiophenecarboxamide]
